Here are results for 18 compounds from US10513503B2, “Use of 3-deoxyanthocyanidins for treating occular diseases” (BIOPHYTIS, priority 2015, dated 2019).

Test [1] has as its system primary cultures of retinal pigment epithelium (RPE) of adult pigs. The test can be described thus: In vitro assay of the photoprotective activity: phototoxicity induced by A2E and blue light, cell survival. Type of test: cell-based, pig. The following applies: for viability at 20 µM / viability at 5 µM: Sus scrofa; for viability at 20 µM / viability at 5 µM / Cell survival: A2E 30 μM, blue light 470 nm 50 min, survival after 24 h, living cells vs control wells without A2E x100, A2E controls without molecule 39.7±3.7. The protocol: A cell model of phototoxicity induced by the association of a treatment by the A2E and of an illumination by blue light on primary cultures of RPE, wherein cell survival was measured, was used. This model uses primary cultures of retinal pigment epithelium of adult pigs.
This model makes it possible in particular to carry out the screening of molecules aimed at the discovery of new candidates for a treatment of the dry form of AMD. This model is closer to the “physiological” situation than the cell lines commonly used in literature, because the cells used contain protective substances provided by the diet of the animal and are therefore not in a situation of “deficiency”, and their disturbance is caused by the adding of A2E into the culture medium.
The cell cultivated in 96-well plates were treated for 48 hours with the compounds to be tested (in a 5 mM solution in the DMSO) in such a way as to obtain final concentrations of 5 or 20 μM), of which the last 19 hours in the presence of A2E (final concentration 30 μM). […] Cell survival is measured after 24 hours.
Cell survival and death are detected 24 hours after the induction of the phototoxicity by colouration of the cells with Hoechst (a nuclear marker) and with ethidium (a marker of the nuclei of dead cells). Images of each well are acquired on a fluorescent microscope equipped with a motorised stage controlled by the Metamorph software, and cell survival is quantified by a dedicated quantification program. The experiments are conducted on 96-well microplates in quadruplicate and each experiment is reproduced at least four times.
The results are expressed in the form of a ratio representing the number of living cells in the wells treated by the molecules to be tested divided by the number of living cells in the control wells (treated with the dilution medium without A2E) and multiplied by 100.

In test [2] the test system is genetically modified mouse model (ABCA4 and Rdh8 inactivated). The test can be described thus: In vivo assay of the photoprotective activity in mice (blue light exposure after intravitreal injection). The following applies: unilateral intravitreal injection, 100-130 μM in the vitreous, blue light 4000 lux 1 h. The source says: A genetically modified mouse model developed by Maeda et al. (Invest Ophthalmol. Vis. Sci., 2009, 50, 4917-4925) was used to test the photoprotective activity of the compounds of the invention.
In this mouse model, two genes involved in the visual pigment cycle (ABCA4 and Rdh8, see FIG. 1) are inactivated, which results in an early accumulation of A2E in the eyes. This animal model is therefore representative of the human pathology.
Mice aged 7 weeks were used to carry out the unilateral intravitreal injections of solubilised diosmetinidin ([…]) in DMSO and diluted in PBS (1.2:100), in order to obtain a concentration in the vitreous of 100-130 μM. DMSO diluted in the PBS was injected into the control animals. After 24 h in the dark, the mice were subjected to an exposure to blue light (4000 lux, 1 h).

In test [3] the test system is RPE cells. To be noted: literature, in words; cited from earlier work.
Test [4] has as its system RPE cells. The following applies: literature, in words; cited from earlier work. This is another data set of the same source.

For the compound `COc1ccc(-c2ccc3ccc(OC)cc3[o+]2)c(O)c1`, the viability at 20 µM in test [1] (20 μM compound for 48 h) is 39.2 ± 7.4%.

`COc1ccc2ccc(-c3ccc(OC)c(OC)c3)[o+]c2c1` had a viability at 20 µM in test [1] (20 μM compound for 48 h) of 48.7 ± 5.5%.

Regarding `COc1ccc(-c2ccc3ccc(O)cc3[o+]2)cc1OC`, the viability at 20 µM in test [1] (20 μM compound for 48 h) is 46.1 ± 4.7%.

In test [1] (20 μM compound for 48 h), `COc1ccc(-c2ccc3ccc(O)cc3[o+]2)c(O)c1` [Compound 1, 2′,7-dihydroxy-4′-methoxy-flavylium chloride] returned a viability at 20 µM of 89.9 ± 4.9%.

In turn, `COc1ccc(-c2ccc3ccc(O)cc3[o+]2)c(O)c1O` [Compound 2, 2′,3′,7-trihydroxy-4′-methoxy-flavylium chloride] had a viability at 20 µM in test [1] (20 μM compound for 48 h) of 86.7 ± 2.3%.

The compound `COc1ccc(-c2ccc3ccc(O)cc3[o+]2)cc1O` [Compound 3, 3′,7-dihydroxy-4′-methoxy-flavylium chloride] showed a viability at 20 µM in test [1] (20 μM compound for 48 h) of 77 ± 2.7%.

Take `Oc1ccc(-c2ccc3c(O)cc(O)cc3[o+]2)cc1` [Compound 4, 4′,5,7-trihydroxy-flavylium chloride (apigeninidin)]: the viability at 5 µM in test [1] (5 μM compound for 48 h) is 71 ± 3.6%. This compound also displayed a viability at 20 µM in test [1] (20 μM compound for 48 h) of 89.5 ± 3.5%.

Turning to `COc1ccc(-c2ccc3c(O)cc(O)cc3[o+]2)cc1O.[Cl-]` [Compound 5, 3′,5,7-trihydroxy-4′-methoxy-flavylium chloride (diosmetinidin)], the viability at 5 µM in test [1] (5 μM compound for 48 h) amounted to 84.5 ± 1.4%. Moreover, the viability at 20 µM in test [1] (20 μM compound for 48 h) was determined as 90.8 ± 3.6%. In addition, the “electroretinograms (wave A, wave B electrical activity)” value in test [2] (7 days later) is reported as “protective effect”. In test [2] (FIG. 4), the “survival of the photoreceptors (number of layers of photoreceptors)” value is recorded as “good survival”.

`Oc1cc(O)c2ccc(-c3cc(O)c(O)c(O)c3)[o+]c2c1` [Compound 6, 3′,4′,5′,5,7-pentadroxy-flavylium chloride (tricetinidin)] displayed a viability at 5 µM in test [1] (5 μM compound for 48 h) of 74.9 ± 4.2%. In test [1] (20 μM compound for 48 h), this compound gave a viability at 20 µM of 99.3 ± 3.3%.

`Oc1cc(O)c2ccc(-c3ccc(O)c(O)c3)[o+]c2c1` [Compound 7, 3′,4′,5,7-tetrahydroxy-flavylium chloride (luteolinidin)] yielded a viability at 5 µM in test [1] (5 μM compound for 48 h) of 72 ± 4.4%. Moreover, the viability at 20 µM in test [1] (20 μM compound for 48 h) was 93.6 ± 6.7%.

`Oc1cc(O)c2cc(O)c(-c3ccc(O)c(O)c3)[o+]c2c1` [Cyanidin, cyanidin]: in the test on RPE cells [3], the “photoprotective effect on the RPE cells” value was “photoprotective effect”. The Cell survival in test [1] (5 μM compound for 48 h) is on record as 56.4 ± 8.8%; in test [1] (20 μM compound for 48 h), 92.9 ± 1.9%. In addition, the photoprotector effect result in test [1] (at 20 μM, in words) is given as “substantial photoprotector effect”. In test [1] (at a lower concentration (5 μM), in words), the “effectiveness of the photoprotection” value is given as “substantially reduced”. Besides, the “effectiveness for cell survival of the RPE cells” value (from here on “effectiveness for cell survival”) in the test with RPE cells [4] is given as “ineffectiveness”.

`Oc1cc(O)c2cc(O)c(-c3cc(O)c(O)c(O)c3)[o+]c2c1` [Delphinidin, delphinidin]: the “photoprotective effect on the RPE cells” value in the test on RPE cells [3] is recorded as “photoprotective effect”. The Cell survival is listed as 40.5 ± 6.2% in test [1] (5 μM compound for 48 h) and 57.8 ± 5.6% in test [1] (20 μM compound for 48 h). Besides, the “effectiveness for cell survival” value with RPE cells [4] was “ineffectiveness”.

As to `Oc1ccc2cc(O)c(-c3ccc(O)c(O)c3)[o+]c2c1` [Fisetinidin, fisetinidin], the Cell survival in test [1] (20 μM compound for 48 h) is 39.3 ± 3.2%.

In test [1] (20 μM compound for 48 h), `Oc1ccc(-c2ccc3c(O)cc(O)c(O)c3[o+]2)cc1O` [Gossypetinidin, gossypetinidin] displayed a Cell survival of 36.5 ± 14.4%.

Regarding `COc1cc(-c2[o+]c3cc(O)cc(O)c3cc2O)cc(OC)c1O.[Cl-]` [Malvidin, malvidin], the “photoprotective effect on the RPE cells” value in the test with RPE cells [3] is “contrary”. In addition, the Cell survival in test [1] (20 μM compound for 48 h) is listed as 51.5 ± 6.9%. In addition, the “effectiveness for cell survival” value with RPE cells [4] was “ineffectiveness”.

With `COc1cc(-c2[o+]c3cc(O)cc(O)c3cc2O)cc(O)c1O` [Petunidin, petunidin], the Cell survival in test [1] (20 μM compound for 48 h) was 67.2 ± 6.9%. In addition, the “effectiveness for cell survival” value in the test with RPE cells [4] is “ineffectiveness”.

In the case of `Oc1ccc(-c2[o+]c3cc(O)c(O)c(O)c3cc2O)cc1O` [Quercetagetinidin, quercetagetinidin], in test [1] (20 μM compound for 48 h), the Cell survival was 54.3 ± 6.6%.

guibourtinidin displayed a Cell survival in test [1] (20 μM compound for 48 h) of 42.8 ± 6.9%.

The term viability denotes a per cent measure of how many cells are alive, often set against a control.
